The record followed here is patent US20230263822A1, “MODULATION OF FACTOR 11 EXPRESSION” (Ionis Pharmaceuticals, Inc., priority 2008, published 2023).

Holding throughout (assay type): cell-based
The test system of data set [1] is human Factor 11 mRNA. Nature of the data set: Antisense inhibition of human Factor 11 in HepG2 cells by microwalk gapmers, lipofectin, 75 nM (Example 3). A digest of the protocol: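 HepG2 cells (10,000/well) were transfected via lipofectin with 75 nM 20-mer MOE gapmers (phosphorothioate, 5-methyl-C) for about 24 h. Factor 11 mRNA was measured by qRT-PCR, normalized to RIBOGREEN total RNA, and given as percent inhibition versus untreated cells.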

Data set [2] deals with human Factor 11 mRNA. As to the kind of experiment: Dose-dependent inhibition of human Factor 11 in HepG2 cells, lipofectin 9.375-75 nM (Example 4). Particulars: for percent inhibition of Factor 11 at 9.375 nM / percent inhibition of Factor 11 at 18.75 nM / percent inhibition of Factor 11 at 37.5 nM / percent inhibition of Factor 11 at 75 nM: relative to untreated control cells. Here is the method:
(§1) Cells were plated at a density of 10,000 cells per well and transfected using lipofectin reagent with 9.375 nM, 18.75 nM, 37.5 nM and 75 nM concentrations of antisense oligonucleotide, as specified in Table 9. After a treatment period of approximately 16 hours, RNA was isolated from the cells and Factor 11 mRNA levels were measured by quantitative real-time PCR. Human Factor 11 primer probe set RTS 2966 was used to measure mRNA levels. Factor 11 mRNA levels were adjusted according to total RNA content, as measured by RIBOGREEN. Results are presented as percent inhibition of Factor 11, relative to untreated control cells.

Data set [3] deals with human Factor 11 mRNA. As to the kind of experiment: Dose-dependent inhibition of human Factor 11 in HepG2 cells, electroporation 0.7-20 uM (Example 4). Particulars: for percent inhibition of Factor 11 at 0.7 μM / percent inhibition of Factor 11 at 2.2 μM / percent inhibition of Factor 11 at 6.7 μM / percent inhibition of Factor 11 at 20 μM: relative to untreated control cells. Here is the method: as §1, with “The gapmers were also transfected via electroporation and their dose dependent inhibition of human Factor 11 mRNA was measured. Cells” for “Cells”, “20,000” for “10,000”, “via electroporation” for “using lipofectin reagent”, “0.7 μM, 2.2 μM, 6.7 μM,” for “9.375 nM, 18.75 nM, 37.5 nM”, “20 μM” for “75 nM”, “10.” for “9.”

[4] abbreviates: HepG2 cells, lipofectin, gapmers targeted to nucleobases 1275 to 1318 of SEQ ID NO: 1.
[5] abbreviates: HepG2 cells, lipofectin, gapmers targeted to nucleobases 1018 to 1042 of SEQ ID NO: 1.
The mark [6] stands for this setting: HepG2, lipofectin, ~24 h, gapmers targeted to nucleobases 656 to 704 of SEQ ID NO: 1.

Strand notation (5' to 3'): a small letter for the sugar, then the base; units joined by * are phosphorothioate-linked, units joined directly phosphodiester-linked; [ ] holds rarer units or linkages, { } end groups; capitals alone tell only the bases. e = 2'-O-(2-methoxyethyl) (MOE); [5mC] = 5-methylcytosine; d = 2'-deoxy (DNA)

Consider “416923 (antisense eT*eG*e[5mC]*dA*d[5mC]*dA*dG*dT*dT*dT*d[5mC]*dT*dG*dG*d[5mC]*dA*dG*eG*e[5mC]*e[5mC]) [compound 416923]”, for which the “% inhibition” value with human Factor 11 mRNA [1] (setting [4]) is on record as 96%. Also, in the data set on human Factor 11 mRNA [2], the IC50 worked out at 23 nM, the “percent inhibition of Factor 11 at 9.375 nM” value amounted to 36%, the “percent inhibition of Factor 11 at 18.75 nM” value turned out to be 47% and the “percent inhibition of Factor 11 at 37.5 nM” value is listed as 60%. Moreover, the “percent inhibition of Factor 11 at 75 nM” value in the data set with human Factor 11 mRNA [2] is on record as 67%. Further, in the data set on human Factor 11 mRNA [3], the IC50 was 4000 nM, the “percent inhibition of Factor 11 at 0.7 μM” value came to 15%, the “percent inhibition of Factor 11 at 2.2 μM” value was found to be 30% and the “percent inhibition of Factor 11 at 6.7 μM” value is 60%. In the data set with human Factor 11 mRNA [3], the “percent inhibition of Factor 11 at 20 μM” value was 90%.
Take “416931 (antisense eG*eG*e[5mC]*dA*dT*dT*dG*dG*dT*dG*d[5mC]*dA*d[5mC]*dA*dG*dT*dT*eT*e[5mC]*eT) [compound 416931]”: in the data set with human Factor 11 mRNA [1] (setting [4]), the “% inhibition” value is 96%. In the data set with human Factor 11 mRNA [2], it took 22 nM to reach half-maximal inhibition (IC50), the “percent inhibition of Factor 11 at 9.375 nM” value was 44%, the “percent inhibition of Factor 11 at 18.75 nM” value is 39% and the “percent inhibition of Factor 11 at 37.5 nM” value is 57%. Further, the “percent inhibition of Factor 11 at 75 nM” value with human Factor 11 mRNA [2] was determined as 71%. Moreover, in the data set on human Factor 11 mRNA [3], the half-inhibitory concentration (IC50) is 5100 nM, the “percent inhibition of Factor 11 at 0.7 μM” value is given as 7%, the “percent inhibition of Factor 11 at 2.2 μM” value was 24% and the “percent inhibition of Factor 11 at 6.7 μM” value stood at 60%. In the data set on human Factor 11 mRNA [3], the “percent inhibition of Factor 11 at 20 μM” value was 82%.
In the case of “416924 (antisense eG*eT*eG*d[5mC]*dA*d[5mC]*dA*dG*dT*dT*dT*d[5mC]*dT*dG*dG*d[5mC]*dA*eG*eG*e[5mC]) [compound 416924]”, the “% inhibition” value with human Factor 11 mRNA [1] (setting [4]) was 96%. Also, in the data set with human Factor 11 mRNA [2], the IC50 was 36 nM, the “percent inhibition of Factor 11 at 9.375 nM” value is on record as 25%, the “percent inhibition of Factor 11 at 18.75 nM” value worked out at 38% and the “percent inhibition of Factor 11 at 37.5 nM” value turned out to be 56%. In addition, the “percent inhibition of Factor 11 at 75 nM” value with human Factor 11 mRNA [2] was 59%. Also, in the data set on human Factor 11 mRNA [3], the IC50 amounted to 4100 nM, the “percent inhibition of Factor 11 at 0.7 μM” value stood at 22%, the “percent inhibition of Factor 11 at 2.2 μM” value is given as 40% and the “percent inhibition of Factor 11 at 6.7 μM” value is 63%. For the same substance, the “percent inhibition of Factor 11 at 20 μM” value with human Factor 11 mRNA [3] was 70%.
Take “416985 (antisense eG*e[5mC]*dA*dA*d[5mC]*d[5mC]*dG*dG*dG*dA*dT*dG*dA*dT*dG*eA*eG*eT*eG*e[5mC]) [compound 416985]”: in the data set on human Factor 11 mRNA [1] (setting [5]), the “% inhibition” value was 88%. In the data set with human Factor 11 mRNA [2], the IC50 is 49 nM, the “percent inhibition of Factor 11 at 9.375 nM” value was found to be 17%, the “percent inhibition of Factor 11 at 18.75 nM” value was 30% and the “percent inhibition of Factor 11 at 37.5 nM” value is reported as 47%. Further, the “percent inhibition of Factor 11 at 75 nM” value in the data set on human Factor 11 mRNA [2] is recorded as 57%. In addition, in the data set on human Factor 11 mRNA [3], it took 5800 nM to reach half-maximal inhibition (IC50), the “percent inhibition of Factor 11 at 0.7 μM” value came to 12%, the “percent inhibition of Factor 11 at 2.2 μM” value worked out at 48% and the “percent inhibition of Factor 11 at 6.7 μM” value worked out at 45%. Besides, the “percent inhibition of Factor 11 at 20 μM” value in the data set with human Factor 11 mRNA [3] is 69%.
With “416922 (antisense eG*e[5mC]*eA*d[5mC]*dA*dG*dT*dT*dT*d[5mC]*dT*dG*dG*d[5mC]*dA*dG*dG*e[5mC]*e[5mC]*eT) [compound 416922]”, in the data set with human Factor 11 mRNA [1] (setting [4]), the “% inhibition” value is listed as 94%. For the same substance, in the data set with human Factor 11 mRNA [2], the midpoint of inhibition, the IC50, lay at 36 nM; the “percent inhibition of Factor 11 at 9.375 nM” value came to 14%; the “percent inhibition of Factor 11 at 18.75 nM” value was found to be 25%; the “percent inhibition of Factor 11 at 37.5 nM” value came to 49%. Also, the “percent inhibition of Factor 11 at 75 nM” value in the data set on human Factor 11 mRNA [2] was determined as 75%. Moreover, in the data set with human Factor 11 mRNA [3], the concentration for half-maximal inhibition (IC50) was determined as 1700 nM, the “percent inhibition of Factor 11 at 0.7 μM” value is given as 35%, the “percent inhibition of Factor 11 at 2.2 μM” value is reported as 51% and the “percent inhibition of Factor 11 at 6.7 μM” value was 77%. Besides, the “percent inhibition of Factor 11 at 20 μM” value in the data set with human Factor 11 mRNA [3] is 91%.
As for “416984 (antisense e[5mC]*eA*dA*d[5mC]*d[5mC]*dG*dG*dG*dA*dT*dG*dA*dT*dG*dA*eG*eT*eG*e[5mC]*eA) [compound 416984]”, the “% inhibition” value in the data set with human Factor 11 mRNA [1] (setting [5]) is recorded as 89%. In addition, in the data set on human Factor 11 mRNA [2], it took 22 nM to reach half-maximal inhibition (IC50), the “percent inhibition of Factor 11 at 9.375 nM” value was 26%, the “percent inhibition of Factor 11 at 18.75 nM” value worked out at 50% and the “percent inhibition of Factor 11 at 37.5 nM” value was determined as 62%. Further, the “percent inhibition of Factor 11 at 75 nM” value with human Factor 11 mRNA [2] stood at 81%. Besides, in the data set on human Factor 11 mRNA [3], the IC50 is 1100 nM, the “percent inhibition of Factor 11 at 0.7 μM” value was determined as 43%, the “percent inhibition of Factor 11 at 2.2 μM” value is 54% and the “percent inhibition of Factor 11 at 6.7 μM” value worked out at 88%. The “percent inhibition of Factor 11 at 20 μM” value with human Factor 11 mRNA [3] is 90%.
“416926 (antisense eT*eG*eG*dT*dG*d[5mC]*dA*d[5mC]*dA*dG*dT*dT*dT*d[5mC]*dT*dG*dG*e[5mC]*eA*eG) [compound 416926]”: the “% inhibition” value in the data set on human Factor 11 mRNA [1] (setting [4]) came to 93%. Also, in the data set with human Factor 11 mRNA [2], the 50% inhibitory concentration (IC50) stood at 22 nM, the “percent inhibition of Factor 11 at 9.375 nM” value is 31%, the “percent inhibition of Factor 11 at 18.75 nM” value was found to be 43% and the “percent inhibition of Factor 11 at 37.5 nM” value is on record as 63%. Further, in the data set on human Factor 11 mRNA [2], the “percent inhibition of Factor 11 at 75 nM” value was 82%. Also, in the data set with human Factor 11 mRNA [3], the IC50 was 600 nM, the “percent inhibition of Factor 11 at 0.7 μM” value is 47%, the “percent inhibition of Factor 11 at 2.2 μM” value amounted to 71% and the “percent inhibition of Factor 11 at 6.7 μM” value was determined as 91%. Further, the “percent inhibition of Factor 11 at 20 μM” value with human Factor 11 mRNA [3] was 94%.
As to “417000 (antisense eT*eG*d[5mC]*dA*d[5mC]*dA*dG*dT*dT*dT*d[5mC]*dT*dG*dG*d[5mC]*eA*eG*eG*e[5mC]*e[5mC]) [compound 417000]”, in the data set with human Factor 11 mRNA [1] (setting [4]), the “% inhibition” value is 89%. For the same substance, in the data set on human Factor 11 mRNA [2], the 50% inhibitory concentration (IC50) came to 23 nM, the “percent inhibition of Factor 11 at 9.375 nM” value is recorded as 35%, the “percent inhibition of Factor 11 at 18.75 nM” value is listed as 47% and the “percent inhibition of Factor 11 at 37.5 nM” value was determined as 58%. For the same substance, the “percent inhibition of Factor 11 at 75 nM” value with human Factor 11 mRNA [2] amounted to 70%. In the data set on human Factor 11 mRNA [3], the half-inhibitory concentration (IC50) was determined as 600 nM, the “percent inhibition of Factor 11 at 0.7 μM” value is given as 46%, the “percent inhibition of Factor 11 at 2.2 μM” value turned out to be 73% and the “percent inhibition of Factor 11 at 6.7 μM” value worked out at 76%. In addition, the “percent inhibition of Factor 11 at 20 μM” value in the data set on human Factor 11 mRNA [3] was 89%.
On to “416959 (antisense eT*e[5mC]*dT*dA*dG*dG*dT*d[5mC]*d[5mC]*dA*d[5mC]*dA*dT*dA*dA*eA*eT*eG*eT*e[5mC]) [compound 416959]”, for which the “% inhibition” value in the data set with human Factor 11 mRNA [1] (setting [6]) is reported as 25%.
“416889 (antisense e[5mC]*eT*eT*d[5mC]*dA*dT*dG*dT*d[5mC]*dT*dA*dG*dG*dT*d[5mC]*d[5mC]*dA*e[5mC]*eA*eT) [compound 416889]”: the “% inhibition” value with human Factor 11 mRNA [1] (setting [6]) came to 60%.
Regarding “416870 (antisense eT*eA*eA*dA*dT*dG*dT*d[5mC]*dT*dT*dT*dG*dT*dT*dG*d[5mC]*dA*eA*eG*e[5mC]) [compound 416870]”, the “% inhibition” value in the data set with human Factor 11 mRNA [1] (setting [6]) was found to be 76%.
As for “416906 (antisense eA*eA*e[5mC]*d[5mC]*dG*dG*dG*dA*dT*dG*dA*dT*dG*dA*dG*dT*dG*e[5mC]*eA*eG) [compound 416906]”, in the data set with human Factor 11 mRNA [1] (setting [5]), the “% inhibition” value turned out to be 88%.
In the case of “416936 (antisense e[5mC]*eG*eG*dA*d[5mC]*dG*dG*d[5mC]*dA*dT*dT*dG*dG*dT*dG*d[5mC]*dA*e[5mC]*eA*eG) [compound 416936]”, the “% inhibition” value with human Factor 11 mRNA [1] (setting [4]) was 89%.

One may read the % inhibition as the share of the control response that was lost under treatment. A high value points to strong suppression. Broadly, the IC50 is the concentration that inhibits the measured activity by half.
